Test results from paper PMC8459971, “Evaluation of the hepatotoxicity of the novel GPR40 (FFAR1) agonist CPL207280 in the rat and monkey” (PLoS ONE, 2021).
“And” between values parts separate entries of the source, which are not always exact repeats. Equal values may be shown once.

Legend:
HepG2 cells = assay: Respiration in hepatocytes (Seahorse XF Mito stress test); assay type: cell-based, human; conditions: for oxygen consumption rate, mito stress tracing: Fig2 A; for ECAR (Extracellular Acidification Rate) / OCR (Basal Oxygen Consumption rate): replicates
OATP1B1 = biological target: T1, OATP1B1 (Homo sapiens, UniProt Q9Y6L6); assay: Uptake transporter inhibition assay, OATP1B1
T1 sequence (Q9Y6L6 1-691): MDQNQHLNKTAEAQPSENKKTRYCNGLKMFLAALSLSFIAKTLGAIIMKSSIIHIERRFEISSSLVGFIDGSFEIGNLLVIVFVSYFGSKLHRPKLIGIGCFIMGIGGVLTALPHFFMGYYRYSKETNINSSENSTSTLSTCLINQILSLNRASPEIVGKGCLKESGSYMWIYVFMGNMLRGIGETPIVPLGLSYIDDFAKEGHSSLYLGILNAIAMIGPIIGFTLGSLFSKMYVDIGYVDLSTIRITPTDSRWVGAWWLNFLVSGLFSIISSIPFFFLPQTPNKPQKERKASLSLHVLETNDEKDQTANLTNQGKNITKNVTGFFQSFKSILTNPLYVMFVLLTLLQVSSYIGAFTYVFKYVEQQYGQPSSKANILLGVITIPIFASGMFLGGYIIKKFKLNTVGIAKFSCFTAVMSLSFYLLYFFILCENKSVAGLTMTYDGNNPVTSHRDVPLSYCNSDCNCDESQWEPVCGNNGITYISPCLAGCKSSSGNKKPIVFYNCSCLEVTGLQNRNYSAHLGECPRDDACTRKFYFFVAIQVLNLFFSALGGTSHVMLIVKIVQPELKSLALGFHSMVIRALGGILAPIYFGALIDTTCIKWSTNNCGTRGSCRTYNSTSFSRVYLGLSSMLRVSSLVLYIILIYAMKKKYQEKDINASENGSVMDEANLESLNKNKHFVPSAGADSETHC
Protocol: For the uptake transporter inhibition assay, cells were washed twice with 100 μL of the appropriate buffer (HK, pH 7.4) for OATP1B1, followed by HBSS (pH 7.4) for (NTCP, OAT1, OAT2v1, OATP1A2, and OATP1B3). Uptake experiments were carried out at 37 ± 1°C in 50 μL of the respective buffer containing the probe substrate and the compound or solvent. […] After the experiment, cells were washed twice with 100 μL of cold appropriate buffer and lysed with 50 μL of 0.1 M NaOH. Radiolabeled probe substrate transport was determined by measuring an aliquot (35 μL) from each well for liquid scintillation counting.

`CC#C[C@@H](CC(=O)O)c1ccc(OCC(C)=C(C)C)cc1` [CPL207280] was tested, and the “oxygen consumption rate, mito stress tracing” value (HepG2 cells; HepG2, 1 uM, 54.5812 min) was 47.0103 and 40.8472 and 36.7203, the “oxygen consumption rate, mito stress tracing” value (HepG2 cells; HepG2, 1 uM, 61.2916 min) was 170.96 and 125.782 and 138.858 and the “oxygen consumption rate, mito stress tracing” value (HepG2 cells; HepG2, 1 uM, 67.9128 min) was 139.39 and 102.287 and 110.384. For the same compound, the “oxygen consumption rate, mito stress tracing” value (HepG2 cells; HepG2, 1 uM, 74.5347 min) was 123.934 and 92.2309 and 99.0802, the “oxygen consumption rate, mito stress tracing” value (HepG2 cells; HepG2, 10 uM, 34.6705 min) was 110.191 and 84.6025 and 86.6099 and the “oxygen consumption rate, mito stress tracing” value (HepG2 cells; HepG2, 10 uM, 41.3548 min) was 53.0343 and 43.3081 and 40.0605. The “oxygen consumption rate, mito stress tracing” value (HepG2 cells; HepG2, 10 uM, 47.9665 min) was 52.304 and 44.0598 and 40.3019, the “oxygen consumption rate, mito stress tracing” value (HepG2 cells; HepG2, 10 uM, 54.5812 min) was 53.3375 and 43.9407 and 40.3833 and the “oxygen consumption rate, mito stress tracing” value (HepG2 cells; HepG2, 10 uM, 61.2916 min) was 205.106 and 144.168 and 145.662. For the same compound, the “oxygen consumption rate, mito stress tracing” value (HepG2 cells; HepG2, 10 uM, 67.9128 min) was 156.881 and 114.329 and 108.157, the “oxygen consumption rate, mito stress tracing” value (HepG2 cells; HepG2, 10 uM, 74.5347 min) was 137.02 and 102.413 and 95.1094 and the “oxygen consumption rate, mito stress tracing” value (HepG2 cells; HepG2, 30 uM, 34.6705 min) was 92.7755 and 86.7994 and 98.474. The “oxygen consumption rate, mito stress tracing” value (HepG2 cells; HepG2, 30 uM, 41.3548 min) was 47.1023 and 44.4378 and 48.0839, the “oxygen consumption rate, mito stress tracing” value (HepG2 cells; HepG2, 30 uM, 47.9665 min) was 46.5085 and 44.5297 and 49.242 and the “oxygen consumption rate, mito stress tracing” value (HepG2 cells; HepG2, 30 uM, 54.5812 min) was 47.3133 and 45.4103 and 49.1801. For the same compound, the “oxygen consumption rate, mito stress tracing” value (HepG2 cells; HepG2, 30 uM, 61.2916 min) was 166.246 and 150.833 and 168.619, the “oxygen consumption rate, mito stress tracing” value (HepG2 cells; HepG2, 30 uM, 67.9128 min) was 122.701 and 115.579 and 125.99 and the “oxygen consumption rate, mito stress tracing” value (HepG2 cells; HepG2, 30 uM, 74.5347 min) was 107.636 and 100.89 and 113.574. The “oxygen consumption rate, mito stress tracing” value (HepG2 cells; HepG2, 100 uM, 34.6705 min) was 67.4412 and 69.6068 and 55.4444, the “oxygen consumption rate, mito stress tracing” value (HepG2 cells; HepG2, 100 uM, 41.3548 min) was 37.8597 and 39.5148 and 33.1927 and the “oxygen consumption rate, mito stress tracing” value (HepG2 cells; HepG2, 100 uM, 47.9665 min) was 37.9692 and 40.1535 and 34.8525. The “oxygen consumption rate, mito stress tracing” value (HepG2 cells; HepG2, 100 uM, 54.5812 min) was 38.5804 and 40.5605 and 35.0114, the “oxygen consumption rate, mito stress tracing” value (HepG2 cells; HepG2, 100 uM, 61.2916 min) was 98.1667 and 106.839 and 80.4832 and the “oxygen consumption rate, mito stress tracing” value (HepG2 cells; HepG2, 100 uM, 67.9128 min) was 74.25 and 83.2846 and 59.4526. For the same compound, the “ECAR (Extracellular Acidification Rate)” value (HepG2 cells; HepG2, 0.3 uM) was 0.9978 and 0.9743 and 0.8743, the “OCR (Basal Oxygen Consumption rate)” value (HepG2 cells; HepG2, 0.3 uM) was 0.9555 and 0.9023 and 1.068 and the “ECAR (Extracellular Acidification Rate)” value (HepG2 cells; HepG2, 1 uM) was 0.9613 and 0.9697 and 0.955. The “OCR (Basal Oxygen Consumption rate)” value (HepG2 cells; HepG2, 1 uM) was 0.9695 and 0.8683 and 1.043, the “ECAR (Extracellular Acidification Rate)” value (HepG2 cells; HepG2, 10 uM) was 1.014 and 1.053 and 0.9962 and the “OCR (Basal Oxygen Consumption rate)” value (HepG2 cells; HepG2, 10 uM) was 1.0176 and 0.8931 and 1.143. For the same compound, the “ECAR (Extracellular Acidification Rate)” value (HepG2 cells; HepG2, 30 uM) was 0.995 and 1.079 and 1.004, the “OCR (Basal Oxygen Consumption rate)” value (HepG2 cells; HepG2, 30 uM) was 1.014 and 0.9586 and 1.1505 and the “ECAR (Extracellular Acidification Rate)” value (HepG2 cells; HepG2, 100 uM) was 1.11 and 1.113 and 1.179. For the same compound, the “OCR (Basal Oxygen Consumption rate)” value (HepG2 cells; HepG2, 100 uM) was 1.005 and 0.9369 and 1.04, the “EC50 of acidification of media (ECAR)” value (HepG2 cells; HepG2, Seahorse XF) was “absent” and the “effect on ATP synthesis” value (HepG2 cells; HepG2, Seahorse XF) was “did not alter ATP synthesis”. The “effect on oxygen consumption rate / basal respiration” value (HepG2 cells; HepG2, Seahorse XF) was “reduced basal and maximal respiration at the highest concentration of 100 μM”, the effect on respiration (HepG2 cells; hepatocytes, Seahorse XF, 100 μM) was “slight respiration inhibition” and the IC50 (OATP1B1) was 17.9 µM. The “fold less inhibitory potency than TAK-875, OATP1B1” value (OATP1B1) was “at least 10 fold”.
